Experimental findings from patent US11712458B2, “Degradation of Bruton's tyrosine kinase (BTK) by conjugation of BTK inhibitors with E3 ligase ligand and methods of use” (DANA-FARBER CANCER INSTITUTE, INC., priority 2018, dated 2023) are described below.

For this experiment, the system named is patient-derived mantle cell lymphoma (MCL) cells (DFBL-96069). Briefly: Patient-derived xenograft MCL mouse model. It is filed as in vivo. The following applies: NSG mice grafted with MCL cells, IP, QD, 50 mg/kg, two weeks; FIG. 5. As for the experimental part:
NSG Mice were grafted with patient-derived mantle cell lymphoma (MCL) cells (DFBL-96069). Once burden of disease reached ˜2%, treatment began with indicated compounds: vehicle (IP, BID), Compound I-1 (IP, QD, 50 mg/kg), lenalidomide (IP, QD, 50 mg/kg), and ibrutinib (PO, QD, 30 mg/kg). Mice were treated for two weeks and 4-6 hours after the last dose, peripheral blood was taken and quantified for disease burden via flow cytometry.

For `Cc1c(NC(=O)c2ccc(C(C)(C)C)cc2)cccc1-c1cn(C)c(=O)c(Nc2ccc(C(=O)N3CCN(CCCCCCNC(=O)CNc4cccc5c4C(=O)N(C4CCC(=O)NC4=O)C5=O)CC3)cc2)n1` (stereo not shown) [II-1], the “Efficacy (disease burden in peripheral blood via flow cytometry)” value is recorded as “showed efficacy”.
